# According to US12398132B2, “Derivatives of 4-(imidazo[1,2-a]pyridin-3-yl)-n-(pyridinyl)pyrimidin-2-amine as therapeutic agents” (AUCENTRA THERAPEUTICS PTY LTD, priority 2019, dated 2025):
# pKi: −log10 of the molar value.
# Legend:
# CDK9/CyclinT1 = CDK9/CyclinT1 (Homo sapiens, UniProt P50750); assay: ADP Glo kinase assay, CDK9/CyclinT1; format: biochemical; settings: CDK9T1; for remaining activity at 1 µM: compound at 1 μM (values marked *), read-out: residual enzymatic activity (%) at 1 μM*
# Description: (§1) Inhibition of FLT3(WT), FLT3(ITD) and FLT3(D835Y) and CDKs were determined using ADP Glo Kinase assays (Promega Corporation, Madison, WI, USA). […] Similarly, kinase reaction for CDK4/D1 and CDK6/D3 was performed with reaction buffer (40 nM Tris base pH 7.5, 20 mM MgCl2, 0.4 mM DTT), 0.1 mg/ml BSA and RB-CTF substrate (retinoblastoma protein1 C-terminal fraction). For CDK9/CyclinT1, the kinase reaction was performed with the standard assay buffer and Kinase Dilution Buffer and RBER-IRStide substrate. Half-maximal inhibition (IC50) values were calculated using a 4-parameter logistic non-linear regression model with Graphpad prism (Version 6.0). Apparent inhibition constants (Ki) values were calculated from Km (ATP) and IC50 values for the respective kinases.
# CDK1B = CDK1B (Homo sapiens, UniProt P06493); settings: 1 µM
# CDK2E1 = CDK2E1 (Homo sapiens, UniProt P24941); settings: 1 µM
# CDK4/D1 = CDK4/D1 (Homo sapiens, UniProt P11802); assay: ADP Glo kinase assay, CDK4/D1; format: biochemical; settings: CDK4D1; compound at 1 μM (values marked *); read-out: residual enzymatic activity (%) at 1 μM*
# CDK7HMAT1 = CDK7HMAT1 (Homo sapiens, UniProt P50613); settings: 1 µM;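 note: kinase activity measured with an ADP-Glo luminescent kinase assay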
# Description: Inhibition of FLT3(WT), FLT3(ITD) and FLT3(D835Y) and CDKs were determined using ADP Glo Kinase assays (Promega Corporation, Madison, WI, USA). […] The kinase reactions are run for an optimised time period (FLT3-WT: 120 min, FLT3-ITD: 80 min, FLT3-D835Y: 100 min) at room temperature and then the reaction was stopped by adding 5 μL of ADP Glo reagent. […] Positive and negative controls were performed in 0.5% DMSO in the presence and absence of each FLT3 kinase, respectively. […] Half-maximal inhibition (IC50) values were calculated using a 4-parameter logistic non-linear regression model with Graphpad prism (Version 6.0). Apparent inhibition constants (Ki) values were calculated from Km (ATP) and IC50 values for the respective kinases.
# U937 = assay: Proliferation assay (resazurin/MTT), U937; format: cell-based; settings: Homo sapiens, U-937, read-out: 72 h Growth inhibition GI50, U937 cells
# CDK6/D3 = CDK6/D3 (Homo sapiens, UniProt Q00534); assay: ADP Glo kinase assay, CDK6/D3; format: biochemical; settings: CDK6D3; compound at 1 μM (values marked *); read-out: residual enzymatic activity (%) at 1 μM*
# Description: as §1
# MV-4-11 = assay: Proliferation assay (resazurin/MTT), MV-4-11; format: cell-based; settings: Homo sapiens, MV4-11, read-out: 72 h Growth inhibition GI50, MV-4-11 cells
# FLT3(ITD) = target: T1, FLT3(ITD) (Homo sapiens, UniProt P36888); assay: ADP Glo kinase assay, FLT3(ITD); format: biochemical; settings: apparent Ki calculated from Km (ATP) and IC50, read-out: FLT3 inhibition Ki
# T1 sequence (P36888 1-993): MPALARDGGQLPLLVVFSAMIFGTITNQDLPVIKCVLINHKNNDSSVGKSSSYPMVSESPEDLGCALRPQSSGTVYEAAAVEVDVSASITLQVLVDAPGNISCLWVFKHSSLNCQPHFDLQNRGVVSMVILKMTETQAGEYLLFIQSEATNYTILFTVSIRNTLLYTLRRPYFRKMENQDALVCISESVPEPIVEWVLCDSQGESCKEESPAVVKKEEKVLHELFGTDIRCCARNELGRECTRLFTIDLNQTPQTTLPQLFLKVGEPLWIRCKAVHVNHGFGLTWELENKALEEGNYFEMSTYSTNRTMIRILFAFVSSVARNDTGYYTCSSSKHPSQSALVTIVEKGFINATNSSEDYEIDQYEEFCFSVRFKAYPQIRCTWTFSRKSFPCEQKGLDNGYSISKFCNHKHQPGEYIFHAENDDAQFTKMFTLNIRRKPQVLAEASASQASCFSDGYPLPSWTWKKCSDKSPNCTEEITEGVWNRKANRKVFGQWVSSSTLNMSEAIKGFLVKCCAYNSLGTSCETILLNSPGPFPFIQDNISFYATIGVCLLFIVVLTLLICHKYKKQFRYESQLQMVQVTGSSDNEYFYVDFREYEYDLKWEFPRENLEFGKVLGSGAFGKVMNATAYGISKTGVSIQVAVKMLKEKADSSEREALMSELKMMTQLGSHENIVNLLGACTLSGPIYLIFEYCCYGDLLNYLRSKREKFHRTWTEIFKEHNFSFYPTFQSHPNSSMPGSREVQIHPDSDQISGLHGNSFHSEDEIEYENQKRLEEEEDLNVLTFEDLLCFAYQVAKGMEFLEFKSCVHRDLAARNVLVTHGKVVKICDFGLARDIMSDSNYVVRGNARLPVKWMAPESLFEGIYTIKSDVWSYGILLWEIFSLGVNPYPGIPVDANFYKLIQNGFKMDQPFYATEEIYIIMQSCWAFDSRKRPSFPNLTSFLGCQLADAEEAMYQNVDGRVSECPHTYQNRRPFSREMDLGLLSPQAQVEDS
# CDK4/D1, sequence (P11802 whole entry, species assumed): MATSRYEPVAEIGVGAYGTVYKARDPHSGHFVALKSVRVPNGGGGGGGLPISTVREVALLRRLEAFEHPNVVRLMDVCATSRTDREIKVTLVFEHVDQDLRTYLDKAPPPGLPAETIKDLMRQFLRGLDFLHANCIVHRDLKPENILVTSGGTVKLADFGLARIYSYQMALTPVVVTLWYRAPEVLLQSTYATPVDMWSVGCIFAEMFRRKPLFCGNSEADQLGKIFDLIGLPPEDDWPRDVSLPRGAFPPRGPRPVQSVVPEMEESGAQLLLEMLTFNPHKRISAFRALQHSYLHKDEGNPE
# CDK4/D1, sequence (P24385 whole entry partner, species assumed): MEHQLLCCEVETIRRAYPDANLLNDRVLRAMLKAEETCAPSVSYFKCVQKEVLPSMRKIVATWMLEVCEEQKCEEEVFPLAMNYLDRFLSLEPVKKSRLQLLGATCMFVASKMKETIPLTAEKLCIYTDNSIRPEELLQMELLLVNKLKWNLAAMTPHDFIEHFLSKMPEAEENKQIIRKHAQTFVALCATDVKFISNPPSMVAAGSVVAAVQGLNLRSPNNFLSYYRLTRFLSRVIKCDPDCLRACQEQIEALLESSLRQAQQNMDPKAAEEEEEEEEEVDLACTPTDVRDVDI
# CDK1B, sequence (P06493 whole entry): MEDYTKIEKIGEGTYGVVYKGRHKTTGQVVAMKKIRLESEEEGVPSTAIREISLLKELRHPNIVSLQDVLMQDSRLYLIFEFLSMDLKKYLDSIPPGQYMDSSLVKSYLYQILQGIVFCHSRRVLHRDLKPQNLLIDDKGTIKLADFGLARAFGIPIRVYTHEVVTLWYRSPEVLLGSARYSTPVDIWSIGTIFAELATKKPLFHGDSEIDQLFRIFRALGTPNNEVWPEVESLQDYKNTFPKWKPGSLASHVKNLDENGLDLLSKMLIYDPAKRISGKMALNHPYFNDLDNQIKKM
# CDK1B, sequence (P14635 whole entry partner): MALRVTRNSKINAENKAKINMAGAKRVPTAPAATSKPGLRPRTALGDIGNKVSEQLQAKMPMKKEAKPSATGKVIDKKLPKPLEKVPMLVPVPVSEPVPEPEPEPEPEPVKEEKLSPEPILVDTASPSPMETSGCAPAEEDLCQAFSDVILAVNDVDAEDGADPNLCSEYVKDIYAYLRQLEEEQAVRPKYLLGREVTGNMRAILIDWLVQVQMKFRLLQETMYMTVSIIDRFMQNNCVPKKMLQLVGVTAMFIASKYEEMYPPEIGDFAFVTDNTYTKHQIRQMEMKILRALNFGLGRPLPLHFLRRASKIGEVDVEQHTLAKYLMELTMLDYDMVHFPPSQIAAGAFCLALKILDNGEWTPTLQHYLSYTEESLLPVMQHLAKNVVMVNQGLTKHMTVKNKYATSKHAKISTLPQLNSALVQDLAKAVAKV
# CDK7HMAT1, sequence (P50613 whole entry): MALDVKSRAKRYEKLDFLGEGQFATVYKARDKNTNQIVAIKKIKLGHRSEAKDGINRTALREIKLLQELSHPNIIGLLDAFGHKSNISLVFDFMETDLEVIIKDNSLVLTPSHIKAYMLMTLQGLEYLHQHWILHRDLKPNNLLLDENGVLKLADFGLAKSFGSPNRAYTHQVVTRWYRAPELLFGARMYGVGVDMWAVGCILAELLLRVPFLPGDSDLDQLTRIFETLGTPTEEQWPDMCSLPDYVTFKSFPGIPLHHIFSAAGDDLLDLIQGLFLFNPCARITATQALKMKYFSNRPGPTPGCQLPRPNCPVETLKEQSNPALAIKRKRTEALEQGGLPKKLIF
# CDK7HMAT1, sequence (P51946 whole entry partner): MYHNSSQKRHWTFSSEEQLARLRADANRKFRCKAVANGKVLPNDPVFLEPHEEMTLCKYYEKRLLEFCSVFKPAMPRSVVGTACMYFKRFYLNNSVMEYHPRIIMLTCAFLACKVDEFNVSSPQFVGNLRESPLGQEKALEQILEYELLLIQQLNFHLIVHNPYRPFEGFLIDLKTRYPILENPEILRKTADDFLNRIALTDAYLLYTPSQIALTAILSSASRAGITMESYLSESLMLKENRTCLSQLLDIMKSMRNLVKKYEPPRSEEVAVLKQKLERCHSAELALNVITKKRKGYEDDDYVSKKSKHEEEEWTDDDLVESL
# CDK7HMAT1, sequence (P51948 whole entry partner): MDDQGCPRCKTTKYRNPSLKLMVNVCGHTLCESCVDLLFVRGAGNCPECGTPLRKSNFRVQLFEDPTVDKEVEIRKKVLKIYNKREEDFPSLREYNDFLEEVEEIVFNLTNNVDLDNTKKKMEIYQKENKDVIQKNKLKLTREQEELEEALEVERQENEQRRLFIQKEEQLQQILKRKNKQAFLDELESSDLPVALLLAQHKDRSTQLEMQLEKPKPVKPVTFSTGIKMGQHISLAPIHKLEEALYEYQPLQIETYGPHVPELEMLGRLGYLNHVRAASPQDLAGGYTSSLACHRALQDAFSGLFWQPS
# CDK6/D3, sequence (Q00534 whole entry, species assumed): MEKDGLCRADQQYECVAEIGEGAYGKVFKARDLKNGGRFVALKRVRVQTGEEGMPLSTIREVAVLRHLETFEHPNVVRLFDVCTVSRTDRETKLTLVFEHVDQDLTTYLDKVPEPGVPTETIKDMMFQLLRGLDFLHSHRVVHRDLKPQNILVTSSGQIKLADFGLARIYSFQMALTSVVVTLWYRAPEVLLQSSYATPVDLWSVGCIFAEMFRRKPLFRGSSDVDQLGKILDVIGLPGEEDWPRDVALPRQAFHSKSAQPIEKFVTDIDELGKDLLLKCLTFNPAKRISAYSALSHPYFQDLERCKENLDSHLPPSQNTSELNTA
# CDK6/D3, sequence (P30281 whole entry partner, species assumed): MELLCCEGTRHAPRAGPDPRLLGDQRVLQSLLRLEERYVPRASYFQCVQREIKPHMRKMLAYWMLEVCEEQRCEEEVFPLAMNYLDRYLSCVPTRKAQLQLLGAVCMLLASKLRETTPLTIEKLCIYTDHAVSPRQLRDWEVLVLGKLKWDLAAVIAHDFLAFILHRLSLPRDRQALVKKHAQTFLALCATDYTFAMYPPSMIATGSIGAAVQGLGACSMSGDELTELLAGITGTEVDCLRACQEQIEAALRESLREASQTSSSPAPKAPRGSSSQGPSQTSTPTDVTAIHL
# CDK9/CyclinT1, sequence (P50750 whole entry, species assumed): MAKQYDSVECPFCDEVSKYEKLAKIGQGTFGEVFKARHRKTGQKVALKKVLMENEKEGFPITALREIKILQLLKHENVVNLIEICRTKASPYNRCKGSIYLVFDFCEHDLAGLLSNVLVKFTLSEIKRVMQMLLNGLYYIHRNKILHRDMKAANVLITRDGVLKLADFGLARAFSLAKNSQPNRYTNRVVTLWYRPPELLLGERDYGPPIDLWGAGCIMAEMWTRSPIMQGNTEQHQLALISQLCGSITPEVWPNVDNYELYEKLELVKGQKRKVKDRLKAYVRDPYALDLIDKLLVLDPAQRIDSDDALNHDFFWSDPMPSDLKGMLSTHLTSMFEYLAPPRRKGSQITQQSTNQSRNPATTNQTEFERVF
# CDK9/CyclinT1, sequence (O60563 whole entry partner, species assumed): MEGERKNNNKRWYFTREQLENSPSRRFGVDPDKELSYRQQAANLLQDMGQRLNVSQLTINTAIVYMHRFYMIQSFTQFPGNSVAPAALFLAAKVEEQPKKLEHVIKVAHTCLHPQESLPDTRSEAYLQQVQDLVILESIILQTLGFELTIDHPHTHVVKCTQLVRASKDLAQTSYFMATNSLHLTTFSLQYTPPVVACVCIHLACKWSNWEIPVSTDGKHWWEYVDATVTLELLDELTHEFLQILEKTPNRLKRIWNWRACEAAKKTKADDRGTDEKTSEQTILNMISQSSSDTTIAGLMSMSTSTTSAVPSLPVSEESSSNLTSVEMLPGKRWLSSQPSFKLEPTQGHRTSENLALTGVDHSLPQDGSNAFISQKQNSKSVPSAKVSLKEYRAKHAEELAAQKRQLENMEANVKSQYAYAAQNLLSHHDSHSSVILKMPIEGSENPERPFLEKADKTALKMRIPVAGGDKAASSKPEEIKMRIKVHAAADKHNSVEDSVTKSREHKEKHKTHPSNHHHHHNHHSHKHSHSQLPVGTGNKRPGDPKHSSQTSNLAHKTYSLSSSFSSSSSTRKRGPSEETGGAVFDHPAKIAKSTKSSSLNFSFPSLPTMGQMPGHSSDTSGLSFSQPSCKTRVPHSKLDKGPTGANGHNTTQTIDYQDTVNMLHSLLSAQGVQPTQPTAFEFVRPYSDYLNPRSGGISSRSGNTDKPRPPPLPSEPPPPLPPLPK
remaining activity at 1 µM (CDK9/CyclinT1) [%],activity (CDK1B) [%],activity (CDK2E1) [%],remaining activity at 1 µM (CDK4/D1) [%],activity (CDK7HMAT1) [%],GI50 (U937) [nM],remaining activity at 1 µM (CDK6/D3) [%],GI50 (MV-4-11) [nM],"pKi (CDK9/CyclinT1; apparent Ki calculated from Km (ATP) and IC50, read-out: CDK inhibition Ki)",pKi (FLT3(ITD)),SMILES
85,99,82,70,102,2910,70,44,–,–,"CC(=O)N1CCN(c2ccc(Nc3nccc(-c4cnc5ccc(-c6cn(S(=O)(=O)c7ccccc7)c7ncccc67)cn45)n3)nc2)CC1 [Cmpd 38, 1-(4-(6-((4-(6-(1-(Phenylsulfonyl)-1H-pyrrolo[2,3-b]pyridin-3-yl)imidazo[1,2-a]pyridin-3-yl)pyrimidin-2-yl)amino)pyridin-3-yl)piperazin-1-yl)ethan-1-one]"
82,97,93,55,104,1340,78,1,–,–,"CC(=O)N1CCN(c2ccc(Nc3nccc(-c4cnc5ccc(-c6cn(C)c7ccccc67)cn45)n3)nc2)CC1 [Cmpd 40, 1-(4-(6-((4-(6-(1-Methyl-1H-indol-3-yl)imidazo[1,2-a]pyridin-3-yl)pyrimidin-2-yl)amino)pyridin-3-yl)piperazin-1-yl)ethan-1-one]"
42,98,81,54,79,1280,89,1,–,–,"CC(=O)N1CCN(c2ccc(Nc3nccc(-c4cnc5ccc(-c6c[nH]c7ccccc67)cn45)n3)nc2)CC1 [Cmpd 41, 1-(4-(6-((4-(6-(1H-Indol-3-yl)imidazo[1,2-a]pyridin-3-yl)pyrimidin-2-yl)amino)pyridin-3-yl)piperazin-1-yl)ethan-1-one]"
–,95,46,52,80,1560,64,5,6.22,–,"CC(=O)N1CCN(c2ccc(Nc3nccc(-c4cnc5ccc(-c6c[nH]c7ncccc67)cn45)n3)nc2)CC1 [Cmpd 42, 1-(4-(6-((4-(6-(1H-pyrrolo[2,3-b]pyridin-3-yl)imidazo[1,2-a]pyridin-3-yl)pyrimidin-2-yl)amino)pyridin-3-yl)piperazin-1-yl)ethan-1-one]"
–,–,–,–,–,471,–,49,–,7.36,"Cc1ccc(Nc2nccc(-c3cnc4ccccn34)n2)nc1 [Cmpd 55, 4-(Imidazo[1,2-a]pyridin-3-yl)-N-(5-methylpyridin-2-yl)pyrimidin-2-amine]"
–,–,–,–,–,339,–,22,–,7.80,"CCC(=O)N1CCN(c2ccc(Nc3nccc(-c4cnc5ccccn45)n3)nc2)CC1 [Cmpd 56, 1-(4-(6-((4-(Imidazo[1,2-a]pyridin-3-yl)pyrimidin-2-yl)amino)pyridin-3-yl)piperazin-1-yl)propan-1-one]"

# The remaining lines, values behind:
SMILES,remaining activity at 1 µM (CDK9/CyclinT1) [%],activity (CDK1B) [%],activity (CDK2E1) [%],remaining activity at 1 µM (CDK4/D1) [%],activity (CDK7HMAT1) [%],GI50 (U937) [nM],remaining activity at 1 µM (CDK6/D3) [%],GI50 (MV-4-11) [nM],"pKi (CDK9/CyclinT1; apparent Ki calculated from Km (ATP) and IC50, read-out: CDK inhibition Ki)",pKi (FLT3(ITD))
"CC(=O)N1CCN(c2ccc(Nc3nccc(-c4cnc5ccc(Nc6ccccc6)cn45)n3)nc2)CC1 [Cmpd 28, 1-(4-(6-((4-(6-(Phenylamino)imidazo[1,2-a]pyridin-3-yl)pyrimidin-2-yl)amino)pyridin-3-yl)piperazin-1-yl)ethan-1-one]",61,98,86,77,91,1490,80,6,–,–
"CC(=O)N1CCN(c2ccc(Nc3ncc(F)c(-c4cnc5ccccn45)n3)nc2)CC1 [Cmpd 29, 1-(4-(6-((5-Fluoro-4-(imidazo[1,2-a]pyridin-3-yl)pyrimidin-2-yl)amino)pyridin-3-yl)piperazin-1-yl)ethan-1-one]",36,100,47,59,82,393,59,43,–,–
"CC(=O)N1CCN(c2ccc(Nc3ncc(F)c(-c4cnc5ccc(F)cn45)n3)nc2)CC1 [Cmpd 30, 1-(4-(6-((5-Fluoro-4-(6-fluoroimidazo[1,2-a]pyridin-3-yl)pyrimidin-2-yl)amino)pyridin-3-yl)piperazin-1-yl)ethan-1-one]",33,96,51,55,77,4040,58,72,–,–
"CC(=O)N1CCN(c2ccc(Nc3ncc(F)c(-c4cnc5ccc(C(F)(F)F)cn45)n3)nc2)CC1 [Cmpd 32, 1-(4-(6-((5-Fluoro-4-(6-(trifluoromethyl)imidazo[1,2-a]pyridin-3-yl)pyrimidin-2-yl)amino)pyridin-3-yl)piperazin-1-yl)ethan-1-one]",82,93,65,67,84,821,70,24,–,–
"CC(=O)N1CCN(c2ccc(Nc3nccc(-c4cnc5ccc(-c6coc7ccccc67)cn45)n3)nc2)CC1 [Cmpd 33, 1-(4-(6-((4-(6-(Benzofuran-3-yl)imidazo[1,2-a]pyridin-3-yl)pyrimidin-2-yl)amino)pyridin-3-yl)piperazin-1-yl)ethan-1-one]",72,98,84,60,88,1860,79,3,–,–
"CC(=O)N1CCN(c2ccc(Nc3nccc(-c4cnc5ccc(-c6cn(S(=O)(=O)c7ccccc7)c7ccccc67)cn45)n3)nc2)CC1 [Cmpd 34, 1-(4-(6-((4-(6-(1-(Phenylsulfonyl)-1H-indol-3-yl)imidazo[1,2-a]pyridin-3-yl)pyrimidin-2-yl)amino)pyridin-3-yl)piperazin-1-yl)ethan-1-one]",100,99,75,55,80,2490,77,66,–,–
"CC(=O)N1CCN(c2ccc(Nc3nccc(-c4cnc5ccc(-c6csc7ccccc67)cn45)n3)nc2)CC1 [Cmpd 35, 1-(4-(6-((4-(6-(Benzo[b]thiophen-3-yl)imidazo[1,2-a]pyridin-3-yl)pyrimidin-2-yl)amino)pyridin-3-yl)piperazin-1-yl)ethan-1-one]",91,81,100,77,81,> 10000,76,7,–,–
"CC(=O)N1CCN(c2ccc(Nc3nccc(-c4cnc5ccc(-c6cccc7[nH]ccc67)cn45)n3)nc2)CC1 [Cmpd 36, 1-(4-(6-((4-(6-(1H-Indol-4-yl)imidazo[1,2-a]pyridin-3-yl)pyrimidin-2-yl)amino)pyridin-3-yl)piperazin-1-yl)ethan-1-one]",99,96,89,58,96,1360,76,12,–,–
"CC(=O)N1CCN(c2ccc(Nc3nccc(-c4cnc5ccc(-c6cc7ccccc7[nH]6)cn45)n3)nc2)CC1 [Cmpd 37, 1-(4-(6-((4-(6-(1H-Indol-2-yl)imidazo[1,2-a]pyridin-3-yl)pyrimidin-2-yl)amino)pyridin-3-yl)piperazin-1-yl)ethan-1-one]",39,96,91,78,103,2420,78,10,–,–
